Measured values taken from patent US20210309666A1, “SMALL MOLECULE MDM2 PROTEIN DEGRADERS” (THE REGENTS OF THE UNIVERSITY OF MICHIGAN, priority 2018, published 2021).
Read-outs that look alike come from different tables or passages of the source.

How the values were obtained:
22RV1 cells = test: Cell growth inhibition, 4-day proliferation assay (WST-8); type: cell-based; settings: Homo sapiens, 96 h; 22RV1, prostate carcinoma, 4 days
Experimental: (§1) The effect of representative Compounds of the Disclosure on cell viability was determined in a 4-day proliferation assay. Cells were maintained in the appropriate culture medium with 10% FBS at 37° C. and an atmosphere of 5% CO2. Also, the effect of a MDM2 inhibitor (Cpd. A; see Compound Example No. 22 of U.S. Pat. No. 8,629,141) and a known MDM2 degrader (Cpd. D, see Cpd. No. 175 of WO 2017/0176957) on cell viability in various cell lines is also included in Table 5. Cpd. […] A and D. The structure of Cpd. A is:
(§2) Cells were seeded in 96-well flat bottom (Corning COSTAR, Corning, N.Y., cat #3595) at a density of 2,000-3,000 cells/well in 100 μL of culture medium. Compounds were serially diluted in the appropriate medium, and 100 μL of the diluted compounds were added to the appropriate wells of the cell plate. After the addition of compounds, the cells were incubated at 37° C. in an atmosphere of 5% CO2 for 4 days. Cell viability was determined using the WST (2-(2-methoxy-4-nitrophenyl)-3-(4-nitrophenyl)-5-(2,4-disulfophenyl)-2H-tetrazolium, monosodium salt) Cell Counting-8 Kit (Dojindo Molecular Technologies, Inc., Rockville, Md.) according to the manufacturers' instructions.
(§3) WST-8 reagent was added to each well at a final concentration of 10% (v/v), and then the plates were incubated at 37° C. for 1-2 hours for color development. The absorbance was measured at 450 nm using a SPECTRAmax PLUS plate reader (Molecular Devices, Sunnyvale, Calif.). The readings were normalized to the DMSO-treated cells and the half maximal inhibitory concentration (IC50) was calculated by nonlinear regression (four parameters sigmoid fitted with variable slope, least squares fit, and no constraint) analysis using the GraphPad Prism 5 software (GraphPad Software, La Jolla, Calif.).

RS4;11 cells = test: as above; type: cell-based; settings: Homo sapiens, 96 h, 4 days
Experimental: as §1, §2, §3

p53 protein [1] = test: Western blot analysis in 22RV1 cells, p53; type: cell-based, human; settings: 2 hr treatment
Experimental: (§4) 22RV1 cells were treated with Cpd. No. 4 and Cpd. D (MDM2 degraders) or with Cpd. A (MDM2 inhibitor) for 2 hr. MDM2 and p53 proteins were probed using specific antibodies. GAPDH was used as the loading control. […] No. 4 and Cpd. D reduce MDM2 protein and increase p53 protein level, and that Cpd. A increases MDM2 and p53 protein levels in 22RV1 cells.

MDM2 protein [2] = biological target: T1, MDM2 protein (Homo sapiens, UniProt Q00987); test: Western blot analysis in 22RV1 cells, MDM2; type: cell-based; design: endogenous in cells; settings: 2 hr treatment
Experimental: as §4

p53 protein [3] = test: Western blot analysis in RS4;11 cells, p53; type: cell-based, human; settings: 2 hr treatment
Experimental: (§5) RS4;11 cells were treated with Cpd. No. 4 and Cpd. No. 6 (MDM2 degraders) or with Cpd. B and Cpd. C (MDM2 inhibitors) for 2 hr. MDM2 and p53 proteins were probed using specific antibodies. GAPDH was used as the loading control. […] No. 4 and Cpd. No. 6 reduce MDM2 protein and increase p53 protein level, and that Cpd. B and Cpd. C increase MDM2 and p53 protein levels in RS4;11 cells. The structures of Cpd. B (see Compound Example No. 24 of U.S. Pat. No. 8,629,141) and Cpd.

MDM2 protein [4] = biological target: T1, MDM2 protein; test: Western blot analysis in RS4;11 cells, MDM2; type: cell-based; design: No. 4 and Cpd; No. 6 (MDM2 degraders); endogenous in cells; host or cells: RS4;11; settings: 2 hr treatment
Experimental: as §5

HCT116 cells = test: Cell growth inhibition, 4-day proliferation assay (WST-8); type: cell-based; settings: Homo sapiens, HCT-116, 96 h; HCT116, colorectal carcinoma, 4 days
Experimental: as §1, §2, §3

LNCaP cells = test: as above; type: cell-based; settings: Homo sapiens, 96 h, prostate carcinoma, 4 days
Experimental: as §1, §2, §3

ML-2 cells = test: as above; type: cell-based; settings: Homo sapiens, 96 h; ML-2, acute myeloid leukemia, 4 days
Experimental: as §1, §2, §3

MOLM-13 cells = test: as above; type: cell-based; settings: Homo sapiens, 96 h; MOLM-13, acute myeloid leukemia, 4 days
Experimental: as §1, §2, §3

MOLM-14 cells = test: as above; type: cell-based; settings: Homo sapiens, 96 h; MOLM-14, acute myeloid leukemia, 4 days
Experimental: as §1, §2, §3

MV-4;11 cells = test: as above; type: cell-based; settings: Homo sapiens, MV4-11, 96 h, 11, acute biphenotypic B myelomonocytic leukemia, 4 days
Experimental: as §1, §2, §3

OCI-AML-2 cells = test: as above; type: cell-based; settings: Homo sapiens, OCI-AML2, 96 h; OCI-AML-2, acute myeloid leukemia, 4 days
Experimental: as §1, §2, §3

OCI-AML-5 cells = test: as above; type: cell-based; settings: Homo sapiens, 96 h; OCI-AML-5, acute myeloid leukemia, 4 days
Experimental: as §1, §2, §3

SIG-M5 cells = test: as above; type: cell-based; settings: Homo sapiens, 96 h; SIG-M5, acute myeloid leukemia, 4 days
Experimental: as §1, §2, §3

[5] = Pharmacokinetics in mice, oral and IV; type: in vivo; settings: for F: PO 50 mg/kg vs IV 10 mg/kg; for AUC: mouse, in vivo
Experimental: The pharmacokinetics of Cpd. Nos. 4 and 6, and Cpd. D were evaluated in mice.

[6] = Separate PK experiment, plasma concentrations after oral dose; type: in vivo; settings: mouse, 50 mg/kg, mice
Excerpt: In a separate PK experiment, the plasma concentrations of Cpd.

[7] = RS4, 11, precursor cell lymphoblastic leukemia, read-out: IC50
[8] = read-out: Plasma concentration, Average / Mean
[9] = read-out: Plasma concentration, Mouse 1
[10] = read-out: Plasma concentration, Mouse 2

T1 sequence (Q00987 whole entry): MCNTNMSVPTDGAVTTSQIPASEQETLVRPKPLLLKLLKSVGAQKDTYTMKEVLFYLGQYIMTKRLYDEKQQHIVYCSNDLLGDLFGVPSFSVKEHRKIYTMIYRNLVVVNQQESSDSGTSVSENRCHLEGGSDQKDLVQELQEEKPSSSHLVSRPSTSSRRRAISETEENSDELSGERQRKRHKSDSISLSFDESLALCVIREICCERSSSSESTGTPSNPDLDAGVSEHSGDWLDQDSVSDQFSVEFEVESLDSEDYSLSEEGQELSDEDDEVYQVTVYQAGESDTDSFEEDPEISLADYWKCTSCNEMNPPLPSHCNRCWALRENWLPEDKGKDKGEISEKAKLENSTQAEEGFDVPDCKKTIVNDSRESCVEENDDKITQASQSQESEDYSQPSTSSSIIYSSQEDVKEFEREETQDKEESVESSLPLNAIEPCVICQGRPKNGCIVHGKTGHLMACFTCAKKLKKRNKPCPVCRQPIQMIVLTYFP

SMILES	IC50 (22RV1 cells) [nM]	IC50 (RS4;11 cells; [7]) [nM]	MDM2 protein level (MDM2 protein [2])	IC50 (HCT116 cells) [nM]	IC50 (LNCaP cells) [nM]	IC50 (MOLM-13 cells) [nM]	IC50 (MOLM-14 cells) [nM]	concentration at 1 h [6, 8] [ng/mL]	concentration at 1 h [6, 9] [ng/mL]	concentration at 1 h [6, 10] [ng/mL]	concentration at 3 h [6, 8] [ng/mL]	concentration at 3 h [6, 9] [ng/mL]	concentration at 3 h [6, 10] [ng/mL]	concentration at 6 h [6, 8] [ng/mL]	concentration at 6 h [6, 9] [ng/mL]	concentration at 6 h [6, 10] [ng/mL]	p53 protein level (p53 protein [1])	p53 protein level (p53 protein [3])	MDM2 protein level (MDM2 protein [4])	IC50 (ML-2 cells) [nM]	other results
O=C(O)c1ccc(NC(=O)[C@@H]2NC3(CCCCC3)[C@@]3(C(=O)Nc4cc(Cl)ccc43)[C@H]2c2cccc(Cl)c2F)cc1 [Cpd. A, reference compound]	1330	138	increases	–	–	–	–	–	–	–	–	–	–	–	–	–	increases	–	–	–	–
O=C(N[C@H]1CC[C@H](C(=O)O)CC1)[C@@H]1NC2(CCCCC2)[C@@]2(C(=O)Nc3cc(Cl)ccc32)[C@H]1c1cccc(Cl)c1F [Cpd. B, reference compound]	–	–	–	–	–	–	–	–	–	–	–	–	–	–	–	–	–	increase	increase	–	–
O=C(NC12CCC(C(=O)O)(CC1)CC2)[C@@H]1NC2(CCCCC2)[C@@]2(C(=O)Nc3cc(Cl)ccc32)[C@H]1c1cccc(Cl)c1F [Cpd. C, reference compound]	–	–	–	–	–	–	–	–	–	–	–	–	–	–	–	–	–	increase	increase	–	–

More lines, main results first:

IC50 (22RV1 cells) [nM]	IC50 (RS4;11 cells; [7]) [nM]	MDM2 protein level (MDM2 protein [2])	IC50 (HCT116 cells) [nM]	IC50 (LNCaP cells) [nM]	IC50 (MOLM-13 cells) [nM]	IC50 (MOLM-14 cells) [nM]	concentration at 1 h [6, 8] [ng/mL]	concentration at 1 h [6, 9] [ng/mL]	concentration at 1 h [6, 10] [ng/mL]	concentration at 3 h [6, 8] [ng/mL]	concentration at 3 h [6, 9] [ng/mL]	concentration at 3 h [6, 10] [ng/mL]	concentration at 6 h [6, 8] [ng/mL]	concentration at 6 h [6, 9] [ng/mL]	concentration at 6 h [6, 10] [ng/mL]	SMILES	p53 protein level (p53 protein [1])	p53 protein level (p53 protein [3])	MDM2 protein level (MDM2 protein [4])	IC50 (ML-2 cells) [nM]	other results
45	2.9	reduce	400	33	34	78	77.9	78	77.8	624	510	738	414	234	594	O=C1CCC(N2Cc3c(C#CC4CCN(C(=O)c5ccc(NC(=O)[C@@H]6NC7(CCCCC7)[C@@]7(C(=O)Nc8cc(Cl)ccc87)[C@H]6c6cccc(Cl)c6F)cc5)CC4)cccc3C2=O)C(=O)N1 (some centres unmarked) [Cpd. D, reference compound]	increase	–	–	11	IC50 (MV-4;11 cells): 10 nM; IC50 (OCI-AML-2 cells): 110 nM; IC50 (OCI-AML-5 cells): 150 nM; IC50 (SIG-M5 cells): 110 nM; F [5]: 1.27%; AUC ([5]; IV, 10 mg/kg): 193000 ng·h/mL; AUC ([5]; PO, 50 mg/kg): 12300 ng·h/mL
14	0.72	reduce	86	3.2	5.1	7.8	0.62	0.231	1.01	1320	902	1730	338	231	446	O=C1CCC(N2Cc3c(C#CC4CCN(C(=O)[C@H]5CC[C@H](NC(=O)[C@@H]6NC7(CCCCC7)[C@@]7(C(=O)Nc8cc(Cl)ccc87)[C@H]6c6cccc(Cl)c6F)CC5)CC4)cccc3C2=O)C(=O)N1 (stereo partly drawn) [Cpd. No. 4, (3′R,4′S,5′R)-6″-chloro-4′-(3-chloro-2-fluorophenyl)-N-((1r,4R)-4-(4-((2-(2,6-dioxopiperidin-3-yl)-1-oxoisoindolin-4-yl)ethynyl)piperidine-1-carbonyl)cyclohexyl)-2″-oxodispiro[cyclohexane-1,2′-pyrrolidine-3′,3″-indoline]-5′-carboxamide]	increase	increase	reduce	1.2	IC50 (MV-4;11 cells): 2.3 nM; IC50 (OCI-AML-2 cells): 21 nM; IC50 (OCI-AML-5 cells): 23 nM; IC50 (SIG-M5 cells): 21 nM; F [5]: 0.93%; AUC ([5]; IV, 10 mg/kg): 156000 ng·h/mL; AUC ([5]; PO, 50 mg/kg): 7250 ng·h/mL
42	2.4	–	310	13	18	25	0.42	0.576	0.257	3220	3110	3330	2380	2320	2430	O=C1CCC(N2Cc3c(C#CC4CCN(C(=O)C56CCC(NC(=O)[C@@H]7NC8(CCCCC8)[C@@]8(C(=O)Nc9cc(Cl)ccc98)[C@H]7c7cccc(Cl)c7F)(CC5)CC6)CC4)cccc3C2=O)C(=O)N1 (stereo partly drawn) [Cpd. No. 6, (3′R,4′S,5′R)-6″-chloro-4′-(3-chloro-2-fluorophenyl)-N-(4-(4-((2-(2,6-dioxopiperidin-3-yl)-1-oxoisoindolin-4-yl)ethynyl)piperidine-1-carbonyl)bicyclo[2.2.2]octan-1-yl)-2″-oxodispiro[cyclohexane-1,2′-pyrrolidine-3′,3″-indoline]-5′-carboxamide]	–	increase	reduce	4.9	IC50 (MV-4;11 cells): 6.4 nM; IC50 (OCI-AML-2 cells): 69 nM; IC50 (OCI-AML-5 cells): 71 nM; IC50 (SIG-M5 cells): 63 nM; F [5]: 5.7%; AUC ([5]; IV, 10 mg/kg): 154000 ng·h/mL; AUC ([5]; PO, 50 mg/kg): 43500 ng·h/mL
–	–	–	–	–	–	–	3300	4060	2550	7460	6880	8050	8240	7660	8810	O=C1CCC(N2Cc3c(C#CC4CCN(C(=O)C56CCC(NC(=O)[C@@H]7NC8(CCCCC8)[C@@]8(C(=O)Nc9cc(Cl)ccc98)[C@H]7c7cccc(F)c7F)(CC5)CC6)CC4)cccc3C2=O)C(=O)N1 (stereo partly drawn) [Cpd. No. 14, (3′R,4′S,5′R)-6″-chloro-4′-(2,3-difluorophenyl)-N-(4-(4-((2-(2,6-dioxopiperidin-3-yl)-1-oxoisoindolin-4-yl)ethynyl)piperidine-1-carbonyl)bicyclo[2.2.2]octan-1-yl)-2″-oxodispiro[cyclohexane-1,2′-pyrrolidine-3′,3″-indoline]-5′-carboxamide]	–	–	–	–	IC50 (RS4;11 cells; RS4;11 cells, WST-8, read-out: RS4, 11 Cells IC50): 11 nM
